As a reminder, the melting point is the temperature, or range, at which the solid turns liquid.

The first data set deals with Male Fitch ferrets. On the set-up: species or system ferret. As to conditions: in vivo, sc. The protocol:
Male Fitch ferrets (body weights 1.0-1.5 kg) were obtained from Marshall Farms. Ferrets were fasted overnight before experimentation. Apomorphine or a compound of the present invention was administrated subcutaneously; animals were placed individually in observation cages and the drug-induced emesis and signs of nausea were determined (by direct observation) for a period of 90 minutes following drug injection. Nausea was characterized by behaviors such as licking, gagging, backing, head burying, and intense abdominal grooming. Emesis was usually preceded by these behaviors and was characterized by rhythmic abdominal contractions which were associated with vomiting or retching movement.
Sterile saline was used as vehicle. Six animals were used per dose.
On to `c1ccc(N2CCN(Cc3nc4ccccc4[nH]3)CC2)nc1` [2-[(4-pyridin-2-ylpiperazin-1-yl)methyl]-1H-benzimidazole], for which the “induction of emesis in ferrets” value is reported as “did not induce emesis”.

System in the next data set: not given
Conditions: not given
In turn, `Oc1ccc(N2CCN(Cc3nc4ccccc4[nH]3)CC2)nc1` [6-[4-(1H-benzimidazol-2-ylmethyl)piperazin-1-yl]pyridin-3-ol] yielded a melting point of 144 to 145 °C. The molecule `c1cnc(N2CCN(Cc3nc4ccccc4[nH]3)CC2)nc1` [Example 2, 2-[(4-pyrimidin-2-ylpiperazin-1-yl)methyl]-1H-benzimidazole] yielded a melting point of 198 to 200 °C. Still for that read-out and setting: the same measure for `N#Cc1cccnc1N1CCN(Cc2nc3ccccc3[nH]2)CC1` [Example 4, 2-[4-(1H-benzimidazol-2-ylmethyl)piperazin-1-yl]nicotinonitrile]: 208 to 210 °C; for `c1ccc2[nH]c(CN3CCN(c4nccs4)CC3)nc2c1` [Example 7, 2-{[4-(1,3-thiazol-2-yl)piperazin-1-yl]methyl}-1H-benzimidazole]: 203 to 205 °C.

`O=C(N1CCCC1)n1c(CN2CCN(c3ccccn3)CC2)nc2ccccc21` [Example 9, 2-[(4-pyridin-2-ylpiperazin-1-yl)methyl]-1-(pyrrolidin-1-ylcarbonyl)-1H-benzimidazole] had a melting point of 120 to 121 °C. On the same count and under the same terms, the same measure for `CN(C)C(=O)n1c(CN2CCN(c3ccccn3)CC2)nc2ccccc21` [Example 10, N,N-dimethyl-2-[(4-pyridin-2-ylpiperazin-1-yl)methyl]-1H-benzimidazole-1-carboxamide]: 174 to 176 °C. Regarding `N#Cc1ccccc1N1CCN(Cc2nc3ccccc3[nH]2)CC1` [Example 12, 2-[4-(1H-benzimidazol-2-ylmethyl)piperazin-1-yl]benzonitrile], the melting point is 236 to 237 °C. The same measure, in the same setting: the same measure for `Clc1ccccc1N1CCN(Cc2nc3ccccc3[nH]2)CC1` [Example 13, 2-{[4-(2-chlorophenyl)piperazin-1-yl]methyl}-1H-benzimidazole]: 245 to 246 °C; for `Fc1ccccc1N1CCN(Cc2nc3ccccc3[nH]2)CC1` [Example 14, 2-{[4-(2-fluorophenyl)piperazin-1-yl]methyl}-1H-benzimidazole]: 262 to 264 °C; for `Oc1ccc(N2CCN(Cc3nc4ccccc4[nH]3)CC2)cc1` [Example 17, 4-[4-(1H-benzimidazol-2-ylmethyl)piperazin-1-yl]phenol]: 206 to 209 °C.

`CSc1ccccc1N1CCN(Cc2nc3ccccc3[nH]2)CC1` [Example 18, 2-({4-[2-(methylthio)phenyl]piperazin-1-yl}methyl)-1H-benzimidazole] came in with a melting point of 214 to 216 °C. The same measure, in the same setting: the result for `Oc1ccccc1N1CCN(Cc2nc3ccccc3[nH]2)CC1` [Example 20, 2-[4-(1H-benzimidazol-2-ylmethyl)piperazin-1-yl]phenol] reads 208 to 216 °C; that for `CC1CN(c2ccccn2)CCN1Cc1nc2ccccc2[nH]1` (centres unmarked) [Example 24, 2-[(2-methyl-4-pyridin-2-ylpiperazin-1-yl)methyl]-1H-benzimidazole], 207 to 209 °C. On the same count and under the same terms, the result for `C[C@H]1CN(c2ccccn2)CCN1Cc1nc2ccccc2[nH]1` [Example 25, 2-{[(2S)-2-methyl-4-pyridin-2-ylpiperazin-1-yl]methyl}-1H-benzimidazole] reads 149 to 151 °C; that for `C[C@@H]1CN(c2ccccn2)CCN1Cc1nc2ccccc2[nH]1` [Example 26, 2-{[(2R)-2-methyl-4-pyridin-2-ylpiperazin-1-yl]methyl}-1H-benzimidazole], 151 to 153 °C. The same measure, in the same setting: the result for `Fc1cccnc1N1CCN(Cc2nc3ccccc3[nH]2)CC1` [Example 28, 2-{[4-(3-fluoropyridin-2-yl)piperazin-1-yl]methyl}-1H-benzimidazole] reads 210 to 212 °C.

(Values after US20040127504A1, “Benzimidazoles that are useful in treating sexual dysfunction” (priority 2002, published 2004).)
